fluorescein = N-terminal fluorescein label, coupled as FITC

This note sets out measurements from patent US20260284207A1, “COMPOUND FOR USE AS A PEPTIDE BINDER SPECIFICALLY BINDING TO THE UBIQUITIN LIGASE ADAPTER FBXO31” (ETH ZÜRICH, priority 2022, published 2026).

One test deals with K562 cells. Nature of the test: Fluorescent reporter protein stability assay in nucleofected K562 cells. To be noted: sfGFP carrying a primary C-terminal amide. The format is cell-based, human. The procedure: HEK293T cells were cultured in DMEM containing Glutamax (Thermo Fisher Scientific) and K562 cells were cultured in RPMI 1640 containing Glutamax (Thermo Fisher Scientific) under standard conditions. Growth media were further supplemented with 10% (v/v) Fetal Bovine Serum (Thermo Fisher Scientific) and 100 U/ml Penicillin-Streptomycin (Thermo Fisher Scientific). Stably transduced cells were selected using 2 μg/ml Puromycin (Thermo Fisher Scientific), 500 μg/ml Geneticin (Thermo Fisher Scientific) or 10 μg/ml Blasticidin (Thermo Fisher Scientific) starting two days after transduction. Induction of doxycycline-dependent vectors was performed using 500 ng/ml doxycycline (Merck) every 48 hours. […]
For measuring stability of recombinant or semi-synthetic proteins, 1.5-2.0×10^5 cells were nucleofected with 200 pmol of protein in 20 μl cuvettes using a 4D nucleofector device (Lonza) to according the manufacturer's recommendations. Following protein delivery, cells were left to recover at 37° C. for 30-45 minutes before measuring initial mean fluorescence intensity values (to) on a Attune N×T Flow Cytometer (Thermo Fisher Scientific). […] Baseline-fluorescence values of mock nucleofected cells receiving no protein were measured and subtracted for each time point and baseline-corrected fluorescence values were normalized to t0. […]

A further test addresses T1, FBXO31 (Homo sapiens, UniProt Q5XUX0).
T1 construct: histidine tag (Ulp1-cleavable) (cleaved yes); made in house; host or cells: bacteria (pET28b expression vector)
Nature of the test: Competitive fluorescence polarization anisotropy (displacement of fluorescent peptide probes). It is filed as binding. Conditions: probes FL-lib-SVV-NH2, FL-CycD1-NH2, FL-Pep2-NH2; 2 nM probe, 200 nM FBXO31. The procedure: To test whether a lower molecular weight probe could be derived based on these rules, the C-terminally amidated tripeptide Ser-Val-Val-NH2 (302.37 g/mol) was tested.
Increasing concentrations of recombinant FBXO31/SKP1 complexes were mixed with 20 nM fluorescein-labeled peptides in FPA-buffer (150 mM NaCl, 25 mM HEPES, pH 7.5) and incubated for 30 minutes at room temperature. Fluorescence polarization was measured on a Victor Nivo Plate Reader (Perkin Elmer). Following subtraction of baseline signal, polarization levels were normalized to the highest signal of each pair of amidated and non-amidated peptides. Binding curves were fitted by least squares regression and half-maximal binding concentrations were extracted using Prism 9 (Graphpad) assuming one-site binding and no contribution from unspecific interaction. Competition binding assays were performed in the same way using a fixed ratio of 2 nM fluorescent probe and 200 nM FBXO31 and 0.67 nM to 100 μM competing ligand.
For orientation: Polarisation of emitted light reports the rotation of a fluorescent probe.

In test [1] the target is T2, recombinant FBXO31/SKP1 complexes (Homo sapiens, UniProt Q5XUX0).
T2 construct: histidine tag (Ulp1-cleavable) (cleaved yes); made in house; host or cells: bacteria (pET28b expression vector)
T2 sequence (Q5XUX0 whole entry): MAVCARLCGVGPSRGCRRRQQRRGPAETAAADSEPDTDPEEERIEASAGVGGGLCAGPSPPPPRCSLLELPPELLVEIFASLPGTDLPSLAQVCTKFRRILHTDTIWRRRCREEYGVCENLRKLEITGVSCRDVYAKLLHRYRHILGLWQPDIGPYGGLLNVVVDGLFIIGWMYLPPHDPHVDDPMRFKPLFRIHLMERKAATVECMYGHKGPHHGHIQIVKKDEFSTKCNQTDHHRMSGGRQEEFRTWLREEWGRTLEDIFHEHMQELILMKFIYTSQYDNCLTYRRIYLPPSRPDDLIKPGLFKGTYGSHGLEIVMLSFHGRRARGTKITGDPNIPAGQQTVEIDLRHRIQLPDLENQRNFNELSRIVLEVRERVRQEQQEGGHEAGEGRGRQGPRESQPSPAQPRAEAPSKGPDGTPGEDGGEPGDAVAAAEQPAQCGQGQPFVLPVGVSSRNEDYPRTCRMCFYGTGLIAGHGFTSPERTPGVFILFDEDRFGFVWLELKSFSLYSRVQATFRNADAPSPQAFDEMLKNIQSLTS
T2 sequence (P63208 whole entry partner): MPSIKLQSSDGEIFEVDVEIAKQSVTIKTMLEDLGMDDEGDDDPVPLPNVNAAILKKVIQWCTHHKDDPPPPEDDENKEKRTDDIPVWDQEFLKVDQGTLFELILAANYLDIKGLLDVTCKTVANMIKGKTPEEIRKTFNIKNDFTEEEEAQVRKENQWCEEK
Nature of the test: Fluorescence polarization (FP) binding of fluorescein-labeled peptides to recombinant FBXO31/SKP1. Conditions: wild type FBXO31/SKP1. The procedure:
It was then tested whether SCF/FBXO31 directly binds and ubiquitylates amidated clients, or whether it plays an indirect role in CTAP clearance. To this end, recombinant FBXO31 in complex with the binding partner SKP1 was purified and its affinity for various peptides was measured by fluorescence polarization (FP).
In this regard, it was first tested whether FBXO31 specifically binds C-terminal amides rather than side chain amides in asparagine or glutamine. […] Hydrophobic residues were most strongly bound, with X—F—CONH2 as the best substrate (KD≈6 nM), followed by other and then uncharged and charged hydrophilic side chains.
Codon-optimized CDNAs of SKP1 and FBXO31 were generated by gene synthesis (Integrated DNA Technologies) and cloned into the bacterial expression vector pET28b. Expression was performed at 18° C. overnight in presence of 0.5 mM IPTG. Following bacterial cell lysis by sonication in buffer NBA (200 mM NaCl, 50 mM HEPES, 25 mM imidazole, 5 mM DTT freshly added, pH 8.0), recombinant protein was enriched on a HisTrap FF column (Cytiva) by elution with 250 mM imidazole. […]
Increasing concentrations of recombinant FBXO31/SKP1 complexes were mixed with 20 nM fluorescein-labeled peptides in FPA-buffer (150 mM NaCl, 25 mM HEPES, pH 7.5) and incubated for 30 minutes at room temperature. Fluorescence polarization was measured on a Victor Nivo Plate Reader (Perkin Elmer). […]

T1 sequence (Q5XUX0 whole entry): as the sequence (Q5XUX0 whole entry) above
T1 sequence (P63208 whole entry partner): as the sequence (P63208 whole entry partner) above

For the molecule `NS(=O)(=O)OC[C@H]1C[C@@H](Nc2ccnc3cc(-c4cccc(SC(F)(F)F)c4)nn23)[C@H](O)[C@@H]1O` [TAK243], the “effect of inhibitor on destabilization of C-terminally amidated sfGFP” value in the test with K562 cells is on record as “fully blunted”.

Consider `CC[C@H](C)[C@H](NC(=O)[C@H]([C@@H](C)CC)N(C)C(C)=O)C(=O)N[C@H](C(=O)N[C@@H](CC(C)C)C(=O)[C@@]1(C)CO1)[C@@H](C)O` [epoxomicin], for which the “effect of inhibitor on destabilization of C-terminally amidated sfGFP” value with K562 cells is on record as “fully blunted”.

Regarding Ser-Val-Val-NH2, the “displacement of fluorescent peptide probes from FBXO31” value on FBXO31 is “efficiently displace”.

Turning to “[Fluorescein]-KKYRYDVPDYSVV-NH2 (fluorescein-KKYRYDVPDYSVV-NH2) [FL-lib-SVV-NH2]”, the “binding/affinity for FBXO31 (in words)” value in test [1] was “high affinity”.
